Results on 34 compounds are retold here after PubChem BioAssay AID1645868 (Buhrlage Lab, Dana-Farber Cancer Institute and Novartis …, 2021).

SMILES strings stand for the structures. The source made the active and inactive calls.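 The calls were made as follows: active = maximal percent inhibition of the deubiquitinase OTUD3 of at least 30% across the tested doses; inactive = the rest.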

Sequence of OTU domain-containing protein 3 (Homo sapiens) (Q5T2D3 whole entry, looked up, the tested form may be a part): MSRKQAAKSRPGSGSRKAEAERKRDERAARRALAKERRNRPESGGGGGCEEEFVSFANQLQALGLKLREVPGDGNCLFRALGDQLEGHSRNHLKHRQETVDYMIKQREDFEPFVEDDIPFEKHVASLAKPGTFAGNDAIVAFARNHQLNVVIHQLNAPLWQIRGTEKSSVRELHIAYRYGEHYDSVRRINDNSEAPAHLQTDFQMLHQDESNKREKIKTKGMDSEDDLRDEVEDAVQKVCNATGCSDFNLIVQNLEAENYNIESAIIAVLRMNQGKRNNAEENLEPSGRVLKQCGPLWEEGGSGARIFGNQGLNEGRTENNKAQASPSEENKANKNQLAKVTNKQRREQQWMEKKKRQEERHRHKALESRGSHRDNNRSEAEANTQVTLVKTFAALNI

The test has as its target OTU domain-containing protein 3 (Homo sapiens) (UniProt Q5T2D3). As to the kind of experiment: Validation of screening hits, potency titration, in vitro enzymatic, OTU domain-containing protein 3 DUB inhibitors (AID 1645868). To be noted: purified OTUD3, ubiquitin-rhodamine cleavage fluorescence, 2 h.
Turning to `O=C(Nc1cccc2ccccc12)N1CCC(c2nc3c(nnn3Cc3ccc(F)cc3)c(=O)[nH]2)CC1`, the IC50 is > 50 µM (inactive).

`CC(C)=CCC/C(C)=C/Cc1c(O)cc2c(c1O)C(=O)OC2`: the IC50 was 3.25 µM.

Regarding `Cc1ccc(-c2nc(Cn3cnc4ccccc4c3=O)cs2)cc1`, the IC50 was 18.9 µM.

On to `O=C(Nc1cccc2ccccc12)C1CCCN(S(=O)(=O)Cc2ccccc2)C1` (centres undefined), for which the 50% inhibitory concentration (IC50) is 40.5 µM.

On to `CS(=O)(=O)N1CCCc2cc(C(=O)Nc3ccc(Oc4ccccc4)cc3)ccc21`, for which the IC50 was > 50 µM (inactive).

`COCCCN1CCS(=O)(=O)c2c(Cl)c(F)nc(Oc3ccccc3F)c21`: the IC50 is > 50 µM (inactive).

For the compound `CC(C)(C)c1ccc(-c2nnc3n2-c2ccccc2SC3)cc1`, the IC50 is > 50 µM (inactive).

In the case of `COc1ccc2[nH]cc(S(=O)(=O)c3ccc(C)c(F)c3)c(=O)c2c1`, the IC50 was 44.5 µM.

Take `Cc1noc(C)c1CN1CC[C@H]2O[C@H](C(=O)NCc3ccco3)CC[C@H]21`: the IC50 is > 50 µM (inactive).

`O=C(Nc1cc(F)c2nc(N3CCOCC3)ccc2c1)C1CC1`: the IC50 was > 50 µM (inactive).

With `O=C(CSc1ccc(-c2cccc([N+](=O)[O-])c2)nn1)Nc1cccc(F)c1`, the IC50 was 25.2 µM.

As to `COc1cccc(NC(=O)C2C3C=CC4(O3)C2C(=O)N(CCc2ccccc2Cl)C4C(=O)NC2CCCCC2)c1` (centres undefined), the IC50 is 29.7 µM.

Consider `O=c1c(-c2nc(C3CC3)no2)cccn1Cc1c(F)cccc1Cl`, for which the IC50 was > 50 µM (inactive).

As for `O=C(CCCc1c[nH]c2ccccc12)Nc1ccc2c(c1)OCCO2`, the IC50 was > 50 µM (inactive).

`COc1cccc2cc(C(=O)Nc3ccc4c(c3)OCCO4)oc12`: the IC50 was > 50 µM (inactive).

For the compound `Cc1cccc(N2C(=O)/C(=C\c3ccc4c(c3)OCCO4)c3ccccc3C2=O)c1`, the IC50 was > 50 µM (inactive).

In the case of `CCn1c(SCc2nc(N)c3ccccc3n2)nc2ccccc21`, the IC50 is > 50 µM (inactive).

As to `O=C(NCc1ccc(Br)cc1)c1ccc(-c2cccnc2)nc1`, the IC50 was > 50 µM (inactive).

As for `Cc1ccc(NC(=O)c2ccc(N3CCOCC3)nn2)cc1F`, the IC50 was > 50 µM (inactive).

On to `COc1ccc(C)cc1NC(=O)COc1ccc2c(c1)OCO2`, for which the IC50 is > 50 µM (inactive).

For the compound `COc1ccc(NC(=O)C2[C@@H]3C(=O)N(C4CCCCC4)C(=O)[C@@H]3[C@H]3c4ccccc4C=CN23)cc1` (some centres undefined), the IC50 was > 50 µM (inactive).

`Cc1[nH]nc(NC(=O)C2COc3ccccc3O2)c1-c1ccccc1` (centres undefined): the IC50 was 26.6 µM.

As to `CC1Oc2ccccc2C(=O)N(Cc2ccc([N+](=O)[O-])cc2)C1=O` (centres undefined), the IC50 was > 50 µM (inactive).

For the compound `Cc1ccc(NC(=O)c2nnn(-c3ccccc3Br)c2C)cc1C`, the IC50 is > 50 µM (inactive).

Turning to `O=C(NC1CCS(=O)(=O)C1)c1ccc(N2CCC(Cc3ccccc3)CC2)nn1` (centres undefined), the IC50 is > 50 µM (inactive).

With `Cn1c2ccccc2c(=O)c2c(=O)n(Cc3ccccc3)c(-c3ccccc3F)nc21`, the IC50 is 0.33 µM.

As to `Cc1cccc(NC(=O)CN2C(=O)CC(c3ccccc3)S(=O)(=O)c3ccccc32)c1C` (centres undefined), the IC50 is 22.1 µM.

With `COc1ccccc1NC(=O)CSC1=NC2(CCCCC2)Nc2ccccc21`, the IC50 is > 50 µM (inactive).

Turning to `COc1ccc(/C=C/C(=O)Nc2ccc3c(c2)OCCO3)cc1Br`, the IC50 was > 50 µM (inactive).

As to `CC(c1ccccc1)c1nc(-c2ccc(=O)[nH]c2)no1` (centres undefined), the IC50 was > 50 µM (inactive).

For `Cc1ccc2c(c1C)NC(=O)[C@]21[C@@H]2C(=O)N(c3cc(Cl)ccc3Cl)C(=O)[C@@H]2[C@@H]2CCCN21`, the IC50 was > 50 µM (inactive).

Regarding `CCC(C(=O)NCc1ccncc1)N(c1cccc(Cl)c1)S(C)(=O)=O` (centres undefined), the IC50 was > 50 µM (inactive).

Consider `O=C(Cn1c(=O)n(Cc2ccc3c(c2)OCO3)c(=O)c2ncccc21)c1ccc(Cl)cc1`, for which the IC50 was 33.9 µM.

Take `COc1ccc(C2CC(c3ccc(C)cc3)N(C(=O)C3CC3)c3ncnn32)cc1` (centres undefined): the IC50 is > 50 µM (inactive).
